Reference: patent US6818407B2, “Anti-endotoxic antimicrobial cationic peptides and methods of use therfor” (priority 1998, dated 2004)

Experiments:
S. epidermis = experiment: MIC, broth microdilution assay in polypropylene microtiter trays; format: cell-based; details: average of three separate experiments
Summary of the method: (§1)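 Serially titrated peptides incubated with bacteria; growth tracked as OD; lowest level without OD change over the given period reported as MIC.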

S. aureus K147 = experiment: as above; format: cell-based; details: average of three separate experiments
Summary of the method: as §1

S. aureus = experiment: as above; format: cell-based; details: average of three separate experiments
Summary of the method: as §1

E. coli [1] = experiment: as above; format: cell-based; details: average of three separate experiments
Summary of the method: as §1

P. aeruginosa = experiment: as above; format: cell-based; details: average of three separate experiments
Summary of the method: as §1

[2] = tested on: Pseudomonas aeruginosa strain M2; experiment: Protection of neutropenic CD-1 mice challenged with Pseudomonas aeruginosa; format: in vivo; set-up: Survival post bacterial challenge, surviving mice: reference not given here; details: for Survival (%) post bacterial challenge: PBS 8
Summary of the method: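 Neutropenia induced by three i.p. cyclophosphamide doses ([…], alternate days); mice then infected i.p. with 200-300 organisms/mouse. Peptides (200 µg/mouse = 8 mg/kg) in buffered citrate given i.p. at 30 min (single) or 30 min and 16 hrs (double) post-challenge; PBS control; mean of 2 experiments.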

E. coli [3] = experiment: Synergy study (checkerboard titration) with hen white lysozyme; format: cell-based
P. aeruginosa (H103) = experiment: as above; format: cell-based
Salmonella typhi = experiment: as above; format: cell-based
[4] = tested on: mutant (Nal B, H744) of P. aeruginosa; experiment: microbe, parasite or virus in culture; format: cell-based
Summary of the method: (§2)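 Checkerboard titration in Mueller Hinton broth, peptide against carbenicillin or ciprofloxacin, inoculum 10 μl of 10^−4 dilution of overnight culture, 18-24 h at 37 °C. Combination MIC is the lowest concentration reducing growth >50%. FIC index = A/MIC A + B/MIC B, with ≤~0.5 synergy, 1.0 additivity, >1.0 antagonism.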

[5] = tested on: β-lactamase derepressed mutant (H547) of P. aeruginosa; experiment: microbe, parasite or virus in culture; format: cell-based; details: P. aeruginosa H547
Summary of the method: as §2

[6] = cationic peptide concentration, combined with lysozyme
[7] = lysozyme concentration, combined with the peptide

CC[C@H](C)[C@H](NC(=O)CNC(=O)[C@@H](NC(=O)[C@H](CCCCN)NC(=O)[C@H](CCCCN)NC(=O)[C@H](Cc1ccccc1)NC(=O)[C@H](CC(C)C)NC(=O)[C@H](CCCCN)NC(=O)[C@H](Cc1c[nH]c2ccccc12)NC(=O)[C@H](CC(C)C)NC(=O)[C@@H](N)CCCCN)[C@@H](C)CC)C(=O)NCC(=O)N[C@@H](C)C(=O)N[C@H](C(=O)N[C@@H](CC(C)C)C(=O)N[C@@H](CCCCN)C(=O)N[C@H](C(=O)N[C@@H](CC(C)C)C(=O)N[C@@H](CCCCN)C(=O)N[C@H](C(=O)N[C@@H](CC(C)C)C(=O)N[C@H](C(=O)N[C@H](C(=O)NCC(=O)N[C@@H](CC(C)C)C(=O)N1CCC[C@H]1C(=O)N[C@@H](C)C(=O)N[C@@H](CC(C)C)C(=O)N[C@@H](CCCCN)C(=O)N[C@@H](CC(C)C)C(=O)N[C@H](C(=O)N[C@@H](CC(C)C)C(=O)N[C@@H](CCCCN)C(=O)O)[C@@H](C)O)[C@@H](C)O)[C@@H](C)O)C(C)C)C(C)C)C(C)C [CM7]
MIC S. epidermis (S. epidermis): 4 µg/mL
MIC S. aureus K147 (S. aureus K147): 4 to 8 µg/mL
MIC S. aureus (S. aureus): 8 µg/mL
MIC E. coli (E. coli [1]): 2 µg/mL
MIC P. aeruginosa (P. aeruginosa): 8 µg/mL
Survival post bacterial challenge, surviving mice ([2]; double dose (200 μg per mouse i.p. at 30 min and 16 hrs), 16 hr): 12
Survival post bacterial challenge, surviving mice ([2]; double dose, 24 hr): 12
Survival post bacterial challenge, surviving mice ([2]; double dose, 41 hr): 8
Survival post bacterial challenge, surviving mice ([2]; double dose, 48 hr): 6
Survival post bacterial challenge, surviving mice ([2]; double dose, 64 hr): 5
Survival (%) post bacterial challenge ([2]; double dose, 64 hr): 41%
Survival post bacterial challenge, surviving mice ([2]; double dose, 72 hr): 5
Survival (%) post bacterial challenge ([2]; double dose, 72 hr): 41%
Survival post bacterial challenge, surviving mice ([2]; double dose, 96 hr): 5
Survival (%) post bacterial challenge ([2]; double dose, 96 hr): 41%
Survival post bacterial challenge, surviving mice ([2]; single dose (200 μg per mouse i.p. at 30 min), 16 hr): 15
Survival post bacterial challenge, surviving mice ([2]; single dose, 24 hr): 15
Survival post bacterial challenge, surviving mice ([2]; single dose, 41 hr): 13
Survival post bacterial challenge, surviving mice ([2]; single dose, 48 hr): 13
Survival post bacterial challenge, surviving mice ([2]; single dose, 64 hr): 12
Survival (%) post bacterial challenge ([2]; single dose, 64 hr): 80%
Survival post bacterial challenge, surviving mice ([2]; single dose, 72 hr): 11
Survival (%) post bacterial challenge ([2]; single dose, 72 hr): 73%
Survival post bacterial challenge, surviving mice ([2]; single dose, 96 hr): 11
Survival (%) post bacterial challenge ([2]; single dose, 96 hr): 73%
FIC for combination of cationic peptide and lysozyme (E. coli [3]): 0.31
Lowest [CP] showing synergy (E. coli [3]; [6]): 0.65 µg/mL
Lowest [Lyso] showing synergy (E. coli [3]; [7]): 7.8 µg/mL
FIC for combination of cationic peptide and lysozyme (P. aeruginosa (H103)): 0.75
Lowest [CP] showing synergy (P. aeruginosa (H103); [6]): 2.6 µg/mL
Lowest [Lyso] showing synergy (P. aeruginosa (H103); [7]): 250 µg/mL
FIC for combination of cationic peptide and lysozyme (Salmonella typhi): 0.52
Lowest [CP] showing synergy (Salmonella typhi; [6]): 2.61 µg/mL
Lowest [Lyso] showing synergy (Salmonella typhi; [7]): 15.6 µg/mL
(B) MIC of Cipro when combined with peptide ([4]; ciprofloxacin with peptide at concentration (A), Nal B, H744): .125 µg/mL
FIC index ([4]; peptide + ciprofloxacin, Nal B, H744): .63
MIC A MIC of Peptides ([4]; peptide alone, P. aeruginosa mutant Nal B, H744 (Table 5)): 16 µg/mL
(A) Peptide doses together with Cipro ([4]; peptide concentration in combination with ciprofloxacin, Nal B, H744): 2 µg/mL
(B) MIC of Carb when combined with peptide ([5]; Carbenicillin with peptide at concentration (A)): 64 µg/mL
MIC A MIC of Peptides ([5]; peptide alone): 32 µg/mL
(A) Peptide doses together with Carb ([5]; peptide concentration in combination with Carbenicillin): 2 µg/mL
